Patent US8178506B2, “Oligomeric compounds and compositions for use in modulation of small non-coding RNAs” (Regulus Therapeutics Inc., priority 2003, dated 2012)
In the oligonucleotide strings, read from the 5' end, every base follows the letter of its sugar. An asterisk marks phosphorothioate; unmarked linkages are phosphodiester. Other units and linkages are bracketed, terminal groups are in braces. A string of capitals states the bases alone. e = 2'-O-(2-methoxyethyl) (MOE); [5mC] = 5-methylcytosine

Key:
[1] = tested on: mir-143 binding sites; test: pGL3-mir-143 sensor luciferase assay in HeLa cells; format: cell-based, human; settings: for Relative luciferase activity / luciferase expression (% lucif. only control): HeLa cells; for Relative luciferase activity: pGL3-mir-143 sensor with pCR3-pri-mir-143 (430); for luciferase expression (% lucif. only control): pGL3-mir-143 sensor
Description: In one embodiment, an expression system based on the pGL3-Control (Promega Corp., Madison Wis.) vector containing a CMV promoter controlling expression of a luciferase reporter sequence was used in transient transfections of HeLa cells with plasmids expressing miRNA or pri-miRNA mimics. To assess the ability of miRNA mimics to bind and regulate the expression of the luciferase reporter gene, two reporter plasmids were constructed: 1) a synthetic DNA fragment comprising two sites perfectly complementary to mir-143 were inserted into the pGL3-Control luciferase reporter vector, to create the pGL3-mir-143 sensor plasmid, and 2) a DNA fragment comprising the 3′-UTR of the LIM domain only 4 (LMO4) gene (predicted to be regulated by mir-143) was inserted into pGL3-Control to create pGL3-LMO4; this fragment was PCR-amplified using a primer beginning at position 1261 of the LMO4 sequence (GenBank Accession NM_006769.2, incorporated herein as SEQ ID: 809) and the downstream primer hybridizing to the poly-A tail. In each of these plasmids, the target site was placed downstream of the luciferase coding sequence and upstream of the polyadenylation signal in the 3′-UTR of the luciferase reporter vector. The unmodified pGL3-Control luciferase reporter vector was used as a control.
HeLa cells were routinely cultured and passaged as described, and on the day before transfection with expression or reporter plasmids, the HeLa cells were seeded onto 24-well plates 50,000 cells/well. Cells were transfected according to standard published procedures with various combinations of plasmids using 2 μg Lipofectamine™ 2000 Reagent (Invitrogen) per μg of plasmid DNA, or, when transfecting oligomeric compounds, 1.25 μg of Lipofectamine™ 2000 Reagent per 100 nM oligonucleotide or double-stranded RNA. The luciferase signal in each well was normalized to the Renilla luciferase (RL) activity produced from a co-transfected plasmid, pRL-CMV, which was transfected at 0.5 μg per well. Cells were treated at various dosages (4 nM, 20 nM, and 100 nM) with the following oligomeric compound mimics: 1) “ds-mir-143,” 2) “ds-Control,” 3) “pCR3-pri-mir-143,” or 4) “pri-mir-control,” as described supra. In accordance with methods described in Example 12, supra, a luciferase assay was performed 48-hours after transfection. Briefly, cells were lysed in passive lysis buffer (PLB; Promega), and 20 ul of the lysate was then assayed for RL activity using a Dual Luciferase Assay kit (Promega) according to the manufacturer's protocol. The results below are an average of three trials and are presented as percent pGL3-Control luciferase expression normalized to pRL-CMV expression (RL).
In another embodiment, HeLa cells were transfected with 0.03 μg pGL3-mir-143 sensor plasmid and 0.01 μg pRL-CMV plasmid, and, in addition, (except those samples described below as “without mir-143 pri-miRNA,”) were also transfected with 0.01 μg of an expression plasmid designed to express a mir-143 pri-miRNA mimic comprising a larger 430-nt fragment of the mir-143 primary miRNA transcript, referred to as “pCR3-pri-mir-143 (430)” ([…]; SEQ ID NO: 871). […] To further evaluate the ability of the mir-143 pri-miRNA mimic to inhibit luciferase activity from the sensor plasmid, and to assess the ability of oligomeric compounds to interfere with the inhibition of pGL3-mir-143 sensor luciferase expression by the mir-143 pri-miRNA mimic, pGL3-mir-143 sensor-expressing HeLa cells treated with pCR3-pri-mir-143 (430) were additionally treated with varying concentrations (0-, 6.7- or 20 nM) of the following oligomeric compounds: 1) ISIS Number 327901 (SEQ ID NO: 319), a uniform 2′-MOE oligomeric compound targeting mir-143; 2) ISIS Number 342673 (SEQ ID NO: 758), a uniform 2′-MOE scrambled control; or 3) ISIS Number 327924 (SEQ ID NO: 342) targeting an unrelated miRNA (mir-129-2). […]

[2] = tested on: DIO mice; test: Diet-induced obesity (DIO) mice; format: in vivo; settings: 25 mg/kg s.c. twice weekly

327924 (antisense eG*e[5mC]*eA*eA*eG*e[5mC]*e[5mC]*e[5mC]*eA*eG*eA*e[5mC]*e[5mC]*eG*e[5mC]*eA*eA*eA*eA*eA*eG) [compound 327924]
Relative luciferase activity ([1]; 6.7 nM): 0.8
Relative luciferase activity ([1]; 20 nM): 1.2

CTAGTGGTCCTAAACATTTCAC (chemistry not given here) [ISIS 327878, uniform 2′-MOE PS; targets mir-203]
liver toxicity (plasma transaminase levels, weekly) [2]: did not appear to cause liver toxicity

ds-mir-143: double-stranded RNA of ISIS 342199 hybridized to its perfect complement ISIS 342200 (sense UGAGAUGAAGCACUGUAGCUCA; antisense UGAGCUACAGUGCUUCAUCUCA; RNA, backbone not given here)
luciferase activity from the pGL3-mir-143 sensor plasmid ([1]; HeLa, 4 nM, 20 nM and 100 nM, 48 hours): inhibited luciferase activity from the pGL3-mir-143 sensor plasmid in a dose-dependent manner
luciferase expression (% lucif. only control) ([1]; 4 nM, 48 hours): 14.5 % lucif. only control
luciferase expression (% lucif. only control) ([1]; 20 nM, 48 hours): 8.0 % lucif. only control
luciferase expression (% lucif. only control) ([1]; 100 nM, 48 hours): 7.1 % lucif. only control
